Source: patent US20240122834A1, “MEDICAMENT FOR PREVENTION AND TREATMENT OF HYPERPIGMENTATION” (SYMRISE AG, priority 2021, published 2024)

System: tyrosinase activity in B16 melanoma cells
Assay: Tyrosinase activity in B16 melanoma cells (lysate, L-dopa to dopachrome, absorbance 475 nm)
Format: cell-based
Conditions: B16 cells treated for 3 days, untreated control = 100
Excerpt: Tyrosinase is an oxidase that is the rate-limiting enzyme for controlling the production of melanin. The enzyme is mainly involved in two distinct reactions of melanin synthesis; firstly, the hydroxylation of a monophenol and secondly, the conversion of an o-diphenol to the corresponding o-quinone. o-quinone undergoes several reactions to eventually form melanin Tyrosinase is a copper-containing enzyme present in plant and animal tissues that catalyzes the production of melanin and other pigments from tyrosine by oxidation. It is found inside melanosomes which are synthesized in the skin melanocytes. In humans, the tyrosinase enzyme is encoded by the TYR gene.
To measure the tyrosinase activity of the cells, the B16 cells treated for 3 days with several doses of compounds were lysed by incubation at 4° C. for 30 min in lysis buffer (20 mM sodium phosphate, pH 6.8, 1% Triton X-100, 1 mM PMSF, 1 mM EDTA) containing protease inhibitors cocktail. The lysates were centrifuged at 15,000×g for 10 min to obtain the supernatant as the source of tyrosinase. The reaction mixture contained 20 mM phosphate buffer, pH 6.8, 1.25 mM L-dopa (Sigma-Aldrich). After incubation at 37° C. for 2 h, dopachrome formation was monitored by measuring absorbance at a wavelength of 475 nm in a microplate reader (TECAN).

| SMILES | Tyrosinase Activation (sample conc. 10 μg/ml) [%] | Tyrosinase Activation (sample conc. 1 μg/ml) [%] | also measured |
| --- | --- | --- | --- |
| O=Cc1ccccc1 [Benzaldehyde] | 75 | – | – |
| CC(=O)CCc1ccccc1 [Benzyl acetone] | – | – | Tyrosinase Activation (sample conc. 5 μg/ml): 90%; Tyrosinase Activation (sample conc. 25 μg/ml): 80%; Tyrosinase Activation (sample conc. 100 μg/ml): 90% |
| CC(C)=CCC(C)(C)C(=O)C(C)C [Claritone] | – | – | Tyrosinase Activation (sample conc. 2.5 μg/ml): 70% |
| COC(Cc1ccccc1)OC [Phenyl acetaldehyde dimethyl acetal] | 80 | – | Tyrosinase Activation (sample conc. 100 μg/ml): 78% |
| CC(=O)OC1CC(C)CC(C)(C)C1 (stereo not shown) [Mintonat, Homomenthyl acetate] | – | 80 | – |
| C=CCOC(=O)COc1ccccc1 [Allyl phenoxyacetate] | 50 | 62 | Tyrosinase Activation (sample conc. 50 μg/ml): 48% |
| C=CCOC(=O)COC1CCCCC1 [Cyclogalbanate] | 73 | – | – |
| CCCCCc1cc(O)c(C/C=C(\C)CCC=C(C)C)c(O)c1 [(−) CBG] | – | 55 | Tyrosinase Activation (sample conc. 0.5 μg/ml): 62% |
| CCCCCCCCCCCC=O [Aldehyde C12] | – | 82 | Tyrosinase Activation (sample conc. 0.1 μg/ml): 78% |
